Data on 2 compounds can be found in US10668122B2, “Extract of Toona sinensis from supercritical fluid extraction for treating diabetes and metabolic disease, the preparation method and the use thereof” (Metal Industries Research & Development Centre, priority 2009, dated 2020).

Marks after values point to notes of the source that are not given here.

Data set [1] has as its system type 2 diabetic mouse model. Put plainly: Anti-diabetic effect in vivo, type 2 diabetic mouse model (high-fat diet plus STZ injection). Also on record: species or system C57BL/6J mice. Conditions: DM + rosiglitazone 150 μg/kg/day, mean ± SD. How it is done: Eight-week-old male C57BL/6J mice were obtained from BioLASCO Technology (Charles River Taiwan Ltd.). All of the mice received standard animal care under supervision of the Institutional Animal Care and Use Committee of Kaohsiung Medical University, Taiwan. The mice were caged in an air-conditioned animal facility at 23° C. on a 12-h light/dark cycle and were maintained with free access to water and food. Animals were fed either a normal chow diet consisting (as a percentage of total kcal) of 11% fat, 65% carbohydrate, and 24% protein (Maintenance diet 1320, Altromin Spezialfutter GmbH & Co. KG, Germany) or a high-fat diet consisting of 45% fat, 35% carbohydrate, and 20% protein (D12451, Research Diets, Inc., New Brunswick, N.J., USA). After two weeks on either diet, mice were divided into four groups: (i) control (n=7); (ii) high-fat-diet mice with STZ injection (DM; n=5); (iii) high-fat-diet mice with STZ injection plus TS-SCF treatment (DM+TS-SCF; n=6); and (iv) high-fat-diet mice with STZ injection plus rosiglitazone treatment (DM+Rosig; n=4). The mice in groups ii-iv were injected with STZ (45 mg/kg), and both STZ-injected and non-injected animals were kept on their original diets (chow or high-fat) for the duration of the study. TS-SCF (150 mg/kg/day) and rosiglitazone (150 μg/kg/day) treatments via gastric gavage were begun two days after the STZ injection.
Throughout the experiment, body weight and blood glucose from the tail tip were monitored weekly. Blood glucose was detected by the ACCU-CHEK blood glucose meter (Roche Diagnostics, Taipei, Taiwan). Animals were sacrificed after eight weeks of STZ injection and were euthanized by intraperitoneal injection with the anesthetic Zoletil (10 mg/kg) (Virbac, Carros, France). Blood samples were collected from the heart at the time of sacrifice for the measurement of biochemistry data using a Roche Cobas Integra 400 Chemistry Analyzer (Roche Diagnostics, Taipei, Taiwan).
Insulin from plasma were detected by ELISA kits (Crystal Chem, Inc. Downers Grove, USA). The homeostasis model assessment of insulin resistance (HOMA-IR) was calculated using the following formula: fasting blood glucose (mg/dL)×fasting insulin (μU/mL)/405.

Another data set has as its system 3T3-L1 adipocytes. Put plainly: In vitro model for anti-diabetic effect: 24-hour glucose consumption from culture medium of 3T3-L1 adipocytes. The format is cell-based. The note with it: starting glucose 300 mg/dL. As to the method: Adipose tissue is one of the major sites of postprandial glucose uptake (Watson et al., 2007). To speed up the screening of novel anti-diabetic candidate materials from natural products, an in vitro model was established by comparing the 24-hour glucose consumption from the culture medium of 3T3-L1 adipocytes.
The same amount (5×10^5 cells) of 3T3-L1 preadipocytes (BCRC #60159; Bioresource Collection and Research Center, Taiwan) was seeded and cultured in normal glucose (100 mg/dL) DMEM supplemented with 10% FBS, 100 U/mL of penicillin, and 100 μg/mL of streptomycin in a humidified atmosphere of 95% air and 5% CO2 at 37° C. When the cell density reached 100% confluence, 3T3-L1 preadipocytes were induced to differentiate by treating the culture with 450 mg/dL D-glucose, 0.32 μM insulin, 0.5 mM 3-isobutyl-1-methylxanthine and 1 μM dexamethasone for two days. Then, the culture medium of the differentiated adipocytes was changed to DMEM containing 300 mg/dL D-glucose with or without the administration of TSL extracts. After 24 hours, the anti-diabetic activity was determined by measuring the medium glucose concentration using a Roche Cobas Integra 400 Chemistry Analyzer (Roche Diagnostics, Taipei, Taiwan). The coefficient of variation (CV) of the analyzer was 0.62-0.92% within-run and 1.1-1.2% between days. To confirm whether the in vitro model was sufficient to measure the glucose-lowering effect, insulin and rosiglitazone were used as positive controls.
The methods of in vitro model for determination of anti-diabetic effect are the same as the contents described in EXAMPLE 3. To obtain the high to mid-high polar components of TSL, three different extraction methods were used to produce the following extracts, which were previously reported (Liao et al., 2007; Hsieh et al., 2005; Yang et al., 2003). TSLs were (i) extracted by reverse-osmosis of water (1:4 w/v) by boiling for 30 min and then cooling down without further boiling for two hours at room temperature (Liao et al., 2007); (ii) extracted by soaking in 100° C. boiled water (1:10 w/v) three times, each time for 30 min (Hsieh et al., 2005); and (iii) extracted by boiling in 50% v/v alcohol/water for three hours (Yang et al., 2003). Next, the leaves were removed and the remaining liquids were filtered through filter paper (Advantec, Tokyo, Japan). Afterward, the filtrated solutions were concentrated using an evaporator (rotary vacuum evaporator, vv2000; Heidolph, Schwabach, Germany) under reduced pressure and three crude extracts were obtained, which were named TS-WB (i), TS-WS (ii), and TS-E (iii); the yield of each extract was 6.03%, 5.13%, and 8.36%, respectively.

Where [2] appears, read: insulin 3.2×10^−7 to 3.2×10^−5 M.

As for `CN(CCOc1ccc(CC2SC(=O)NC2=O)cc1)c1ccccn1` (centres unmarked) [rosiglitazone], in data set [1] (at sacrifice eight weeks after STZ), the Fasting glucose is reported as 205.00 ± 84.87^b mg/dL. Besides, in data set [1], the Body weight gain is reported as 8.10 ± 1.95 g, the HDL-C worked out at 126.03 ± 32.17 mg/dL, the HOMA-IR is 14.29 ± 4.60^b and the “Insulin (fasting plasma)” value came out at 0.98 ± 0.77 ng/mL. Further, in data set [1], the LDL-C is 9.81 ± 8.29 mg/dL, the “T-CHO (total cholesterol)” value is listed as 137.65 ± 32.62 mg/dL and the “Triglycerol (plasma)” value was 64.94 ± 4.82^d mg/dL. In data set [1] (plasma), the ALT came out at 62.00 ± 27.00 U/L and the Creatinine was 0.54 ± 0.18^e mg/dL. For the same compound, in the data set on 3T3-L1 adipocytes (rosiglitazone 12.5 to 50 μg/mL), the “decrease of the glucose concentration in the media” value was in the range of 50 to 80 mg/dL and the “percentage of glucose consumption” value was 16-27%.
For the compound insulin, in the data set on 3T3-L1 adipocytes (setting [2]), the “decrease of the glucose concentration in the media” value fell in the range of 46 to 57 mg/dL and the “percentage of glucose consumption” value is listed as 15-18%.
